In publication PMC7464537, “Jaceidin Flavonoid Isolated from Chiliadenus montanus Attenuates Tumor Progression in Mice via VEGF Inhibition: In Vivo and In Silico Studies” (Plants, 2020):

Experiments:
[1] = test system: liver cancer cell line (HepG2); experiment: SRB cytotoxicity assay, liver cancer cell line; format: cell-based; details: Homo sapiens, 48 h incubation, triplicate, ±SD
Experimental: (§1) The cytotoxic activity of the isolated compounds was measured in vitro against a human liver cancer cell line (HEPG2), a human breast cancer cell line (MCF-7) and a human melanocyte (normal cell line) (HFB-4) in comparison to Doxorubicin, using sulforhodamine B (SRB) assay. Human tumor cell lines (MCF-7, HepG2) used in this study were obtained from the American Type Culture collection (ATCC, Manassas, VA, USA). The tumor cell lines were maintained at the National Cancer Institute, Cairo, Egypt, by serial sub culturing. Cells were seeded in 96-well microliter plates at initial concentration of (3 × 10^3 cell/well) in a fresh medium and left for 24 h to attach to the plates before treatment of the tested compounds. Tested compounds were dissolved in DMSO and diluted with saline to the appropriate volume. After 24 h, cells were incubated with the appropriate concentration ranges of drugs (0, 12.5, 25, 50, 100 µg/mL), the wells were diluted to 150 µL with fresh medium and incubation was continued for 48 h at 37 °C. Control cells were treated with vehicle alone. Three wells were used for each drug concentration. After 48 h incubation, the cells were fixed with 50 µL of cold 10% trichloroacetic acid for 1 h at 4 °C, washed 5 times with distilled water using (Automatic Washer Tecan, Heidelberg, Germany) and then stained for 30 min at room temperature with 50 µL 0.4% SRB dissolved in 1% acetic acid. The wells were then washed 4 times with 1% acetic acid. The plates were air dried and the dye was solubilized with 100 µL/well 10 mM tris base (pH = 10.5). The Optical density (O.D.) of each well was measured spectrophotometrically at 570 nm with an ELISA microplate reader (sunrise Tecan reader, Germany). The percentage of cell survival was calculated as follows:(1) Surviving fraction=O.D.(treated cells)/O.D.(control cells)
(§2) The relation between surviving fraction and compound concentration was plotted to get the survival curve for tumor cell line after the specified time.

[2] = test system: human melanocyte (normal cell line) (HFB-4); experiment: SRB cytotoxicity assay, normal cell line; format: cell-based; details: 48 h incubation, triplicate, ±SD
Experimental: as §1, §2

[3] = test system: breast cancer cell line (MCF-7); experiment: SRB cytotoxicity assay, breast cancer cell line; format: cell-based; details: Homo sapiens, MCF7, 48 h incubation, triplicate, ±SD
Experimental: as §1, §2

[4] = test system: Ehrlich's ascites carcinoma (EAC) solid tumors; experiment: In vivo antitumor activity: tumor weight and histopathology of EAC solid tumors; set-up: species or system female Swiss albino mice; details: extract 200 mg/kg or jaceidin 50 mg/kg three times weekly
Excerpt: Female Swiss albino mice with original body weight of 20–26 g and age of 8–10 weeks was used in the current experiment and fixed housing conditions were maintained at a normal dark/light cycle. Mice were housed in groups of six in polyethylene cages where food and water were provided ad libitum. The Research Ethics Committee at the Faculty of Pharmacy, Suez Canal University (license number 201809RA1), approved the study of protocol. Ehrlich’s Ascites Carcinoma is commonly employed as a solid form and easy to grow in suspension, when injected in the peritoneal cavity of female mice. Mice carrying the EAC cell line were obtained from the Department of Tumor Biology at the National Cancer Institute (Cairo, Egypt). The viability of EAC cells was ensured employing Trypan blue dye exclusion method. Then, EAC cells suspension was prepared in sterile saline solution to get a final working suspension; each 0.1 mL of which contained 2.5 million of EAC cells. At the beginning of the experiment, mice were shaved at their back, and inoculated with 0.1 mL of the EAC suspension.
Seven days after inoculation with the tumor cells in all female mice, mice were randomly divided into three groups, ten mice in each. The different treatments were started as follows;
(§3) Groups 1: mice treated with saline (5 mL/kg). All therapies continued for 21 days. Group 2: mice treated with C. montanus extract 200 mg/kg three times weekly. Group 3: mice treated with Jaceidin 50 mg/kg three times weekly.
(§4) One day after the end of the experiment (day 21), mice were subjected to light ether anesthesia and sacrificed by cervical dislocation; blood samples were collected by cardiac puncture. Blood samples were maintained at room temperature for 30 min and centrifuged at 12,000× g for 10 min. Then, sera were separated and stored at −20 °C until used. An ELISA kit (Sun Red Biotechnology Company, Shanghai, China) was employed for estimating serum VEGF level according to the manufacturer’s protocol. The color intensity was measured at 450 nm using an automated ELISA reader (Europe S.A., Belgium). Tumor was dissected into two halves; the first half was kept at −20 °C to be used in estimating MDA and GSH levels. The second half was cut into small pieces, then fixed in 10% phosphate-buffered formalin for histopathological examination.
After fixation, samples were dehydrated in ascending grades of ethyl alcohol, cleared in xylol, embedded in paraffin wax, and then subjected to routine histopathological procedures. Sectioning was done at 5–7 µm thick followed by staining with Hematoxylin and Eosin (H&E). Digital imaging of representative areas was captured using image capture engine software (AMT V600.259) which attached to Olympus CX 41biocular microscope. Histopathological analysis of the digital images of solid tumor was performed by quantities the mitotic figures and tumor giant cells. For counting, ten sections from each experimental group were analyzed at scale bar 20 µm by using image J software that was developed by the National Institute of Health (Betheda, MD, USA). Histopathological examinations were evaluated blindly.

[5] = test system: vascular endothelial growth factor B (VEGF-B); experiment: ELISA of serum VEGF level in EAC-bearing mice; format: in vivo, female Swiss albino mice; details: extract 200 mg/kg or jaceidin 50 mg/kg three times weekly
Experimental: as §3, §4

[6] = test system: GSH and MDA levels in tumor tissues; experiment: ELISA of GSH and MDA levels in tumor homogenates; format: in vivo, female Swiss albino mice; details: extract 200 mg/kg or jaceidin 50 mg/kg three times weekly
Experimental: as §3, §4
Using a frozen sample, a part of tumor was weighted and homogenized as 10% (w/v) in phosphate-buffered saline using a Teflon homogenizer (Glass col homogenizer system, Vernon Hills, IL, USA). Homogenates were then centrifuged at 15,000× g for 10 min at 4 °C. After centrifugation, the supernatants were collected into 2 dry tubes and kept at −80 °C. The levels of MDA and GSH were determined in the tumor homogenates of […] using ELISA kits for MDA (Catalog No. MBS741034) and GSH (Catalogue Number: MBS026635) according to the manufacturer’s instructions.

[7] = EAC solid tumors in female mice, 21 days

SMILES	IC50 [1] [µM]	IC50 [2] [µM]	IC50 [3] [µM]	further results
C=C(C)[C@@H]1CC[C@]2(C)CCC[C@](C)(O)[C@H]2C1 [Compound 1, Intermedeol]	48.2 ± 0.3	> 200	45.6 ± 0.5	–
C=C1CCC[C@]2(C)CCC(C(C)(C)O)C[C@@]12OO (stereo partly drawn) [Compound 2, 5α-hydroperoxy-β-eudesmol]	39.7 ± 0.65	> 200	41.5 ± 0.55	–
COc1ccc(-c2oc3cc(O)cc(O)c3c(=O)c2OC)cc1OC [Compound 3, 5,7-dihydroxy-3,3’,4’-trimethoxyflavone]	30.5 ± 0.61	> 200	10.7 ± 0.4	–
COc1cc(-c2oc3cc(O)c(OC)c(O)c3c(=O)c2OC)ccc1O [Compound 4, 5,7,4’-trihydroxy-3,6,3’-trimethoxyflavone]	9.7 ± 0.26	> 200	9.3 ± 0.3	mean tumor weight [4, 7]: 0.032 g; tumor weight decrease compared to tumor control [4, 7]: 96.4%; necrosis in the tumor tissues ([4]; H&E histopathology, mean ± SD, tumor control 3.46 ± 0.68): 1.63 ± 0.68; number of tumor giant cells in the tumor tissues ([4]; H&E histopathology, mean ± SD, tumor control 7.65 ± 2.48): 1.30 ± 1.08; number of mitotic figures in the tumor tissues ([4]; H&E histopathology, mean ± SD, tumor control 31.45 ± 5.46): 5.20 ± 2.35; mitotic figure decrease compared to tumor control ([4]; H&E histopathology): 83.47%; necrosis decrease compared to tumor control ([4]; H&E histopathology): 53.01%; tumor giant cell decrease compared to tumor control ([4]; H&E histopathology): 83%; serum VEGF decrease compared to tumor control [5]: 61.7%; serum VEGF levels ([5]; mean ± SD, tumor control 71.46 ± 1.88): 27.3 ± 2.82; GSH levels in tumor tissues ([6]; mean ± SD, tumor control 11.62 ± 1.96): 29.25 ± 3.36; MDA levels in the tumor tissues ([6]; mean ± SD, tumor control 15.18 ± 1.89): 4.25 ± 1.28; GSH increase compared to tumor control ([6]; tumor tissues): 2.5 folds; MDA decrease compared to tumor control ([6]; tumor tissues): 72%
C=C(C)[C@]1(O)CC[C@]2(C)[C@H](O)CC[C@](C)(O)[C@@H]2C1 [Compound 5, Eudesm-11,13-ene-1β,4β,7α-triol]	33.4 ± 0.49	> 200	38.5 ± 0.55	–
CC(C)(O)[C@@]1(O)CC[C@]2(C)C(C1)[C@@](C)(O)CC[C@H]2O (stereo partly drawn) [Compound 6, 1β,4β,7β, 11-tetrahydroxyeudesmane]	35.1 ± 0.6	> 200	33.2 ± 0.35	–
COc1cccc2c1C(=O)c1c(O)c3c(c(O)c1C2=O)C[C@@](O)(C(=O)CO)C[C@@H]3O[C@H]1C[C@H](N)[C@H](O)[C@H](C)O1 [Doxorubicin, reference compound]	4.58 ± 0.47	14.7 ± 0.5	4 ± 0.25	–
